Source: PubChem BioAssay AID330 (DTP/NCI, 2004)
“And” between values parts separate entries of the source, which are not always exact repeats. Equal values may be shown once. Inconclusive results and toxic doses are left out.

System: P388 leukemia ip, CD2F1 mice, survival T/C
Assay: NCI In Vivo Anticancer Drug Screen. Data for tumor model P388 Leukemia (intraperitoneal) in CD2F1 (CDF1) mice
Conditions: endpoint: median survival time, higher = longer survival
Procedure, shortened: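 Mice carrying the transplanted tumor received test compound or vehicle. Survival was recorded in each group, and the value is the treated-group measurement divided by that of the vehicle-treated control group.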

[1] = dose: 50.0 mg/kg/injection, schedule: Q04DX003 (ip), vehicle: Klucel (hydroxypropylcellulose) (HPC)
[2] = dose: 100.0 mg/kg/injection, schedule: Q04DX003 (ip), vehicle: Klucel (hydroxypropylcellulose) (HPC)
[3] = dose: 200.0 mg/kg/injection, schedule: Q01DX009 (ip), vehicle: saline with Tween-80
[4] = dose: 200.0 mg/kg/injection, schedule: Q04DX003 (ip), vehicle: Klucel (hydroxypropylcellulose) (HPC)

Nc1ncnc2c1ncn2C1OC(CO)C(O)C1O (configuration not stated)
T/C (dose: 1.25 mg/kg/injection, schedule: Q03HX016 (ip), vehicle: saline): 113 % of control | T/C (dose: 1.56 mg/kg/injection, schedule: Q01DX009 (ip), vehicle: saline): 116 % of control | T/C (dose: 2.5 mg/kg/injection, schedule: Q03HX016 (ip), vehicle: saline): 122 % of control | T/C (dose: 3.12 mg/kg/injection, schedule: Q01DX009 (ip), vehicle: saline): 122 % of control | T/C (dose: 6.25 mg/kg/injection, schedule: Q01DX009 (ip), vehicle: saline): 119 % of control and 104 % of control | T/C (dose: 9.0 mg/kg/injection, schedule: Q01DX009 (ip), vehicle: saline with Tween-80): 114 % of control | T/C (dose: 12.5 mg/kg/injection, schedule: Q01DX009 (ip), vehicle: saline with Tween-80): 118 % of control | T/C (dose: 12.5 mg/kg/injection, schedule: Q01DX009 (ip), vehicle: saline): 103 % of control | T/C (dose: 12.5 mg/kg/injection, schedule: Q03HX016 (ip), vehicle: Klucel (hydroxypropylcellulose) (HPC)): 110 % of control | T/C (dose: 14.0 mg/kg/injection, schedule: Q01DX009 (ip), vehicle: saline with Tween-80): 120 % of control | T/C (dose: 20.0 mg/kg/injection, schedule: Q01DX009 (ip), vehicle: saline): 103 % of control | T/C (dose: 20.0 mg/kg/injection, schedule: Q03HX016 (ip), vehicle: saline): 122 % of control | T/C (dose: 25.0 mg/kg/injection, schedule: Q01DX009 (ip), vehicle: saline): 103 % of control | T/C (dose: 25.0 mg/kg/injection, schedule: Q03HX016 (ip), vehicle: Klucel (hydroxypropylcellulose) (HPC)): 120 % of control | T/C (dose: 25.0 mg/kg/injection, schedule: Q04DX003 (ip), vehicle: Klucel (hydroxypropylcellulose) (HPC)): 105 % of control | T/C (dose: 25.0 mg/kg/injection, schedule: Q04DX003 (ip), vehicle: saline sonified): 118 % of control | T/C (dose: 32.0 mg/kg/injection, schedule: Q01DX009 (ip), vehicle: Klucel (hydroxypropylcellulose) (HPC)): 100 % of control and 102 % of control | T/C (dose: 40.0 mg/kg/injection, schedule: Q01DX009 (ip), vehicle: saline): 115 % of control and 118 % of control | T/C (dose: 50.0 mg/kg/injection, schedule: Q01DX009 (ip), vehicle: saline sonified): 123 % of control | T/C (dose: 50.0 mg/kg/injection, schedule: Q01DX009 (ip), vehicle: saline): 99 % of control | T/C [1]: 97 % of control | T/C (dose: 50.0 mg/kg/injection, schedule: Q04DX003 (ip), vehicle: saline sonified): 122 % of control | T/C (dose: 64.0 mg/kg/injection, schedule: Q01DX009 (ip), vehicle: Klucel (hydroxypropylcellulose) (HPC)): 102 % of control and 97 % of control | T/C (dose: 75.0 mg/kg/injection, schedule: Q01DX009 (ip), vehicle: saline sonified): 95 % of control | T/C (dose: 75.0 mg/kg/injection, schedule: Q01DX009 (ip), vehicle: saline with Tween-80): 72 % of control | T/C (dose: 78.6 mg/kg/injection, schedule: Q01DX005 (ip), vehicle: water): 106 % of control | T/C (dose: 78.6 mg/kg/injection, schedule: Q01DX009 (ip), vehicle: water): 100 % of control | T/C (dose: 80.0 mg/kg/injection, schedule: Q01DX009 (ip), vehicle: saline): 122 % of control | T/C (dose: 100.0 mg/kg/injection, schedule: Q01DX009 (ip), vehicle: saline): 122 % of control and 73 % of control | T/C [2]: 96 % of control | T/C (dose: 100.0 mg/kg/injection, schedule: Q04DX003 (ip), vehicle: saline sonified): 110 % of control | T/C (dose: 118.0 mg/kg/injection, schedule: Q01DX005 (ip), vehicle: water): 99 % of control | T/C (dose: 118.0 mg/kg/injection, schedule: Q01DX009 (ip), vehicle: water): 99 % of control | T/C (dose: 128.0 mg/kg/injection, schedule: Q01DX009 (ip), vehicle: Klucel (hydroxypropylcellulose) (HPC)): 101 % of control and 93 % of control | T/C (dose: 177.0 mg/kg/injection, schedule: Q01DX005 (ip), vehicle: water): 99 % of control | T/C (dose: 177.0 mg/kg/injection, schedule: Q01DX009 (ip), vehicle: water): 111 % of control | T/C [3]: 115 % of control | T/C (dose: 200.0 mg/kg/injection, schedule: Q03HX016 (ip), vehicle: Klucel (hydroxypropylcellulose) (HPC)): 154 % of control | T/C [4]: 98 % of control | T/C (dose: 200.0 mg/kg/injection, schedule: Q04DX003 (ip), vehicle: saline sonified): 110 % of control | T/C (dose: 256.0 mg/kg/injection, schedule: Q01DX009 (ip), vehicle: Klucel (hydroxypropylcellulose) (HPC)): 99 % of control and 88 % of control | T/C (dose: 264.0 mg/kg/injection, schedule: Q04DX003 (ip), vehicle: saline with Tween-80): 121 % of control | T/C (dose: 266.0 mg/kg/injection, schedule: Q01DX005 (ip), vehicle: water): 115 % of control | T/C (dose: 266.0 mg/kg/injection, schedule: Q01DX009 (ip), vehicle: saline with Tween-80): 121 % of control | T/C (dose: 266.0 mg/kg/injection, schedule: Q01DX009 (ip), vehicle: water): 113 % of control | T/C (dose: 400.0 mg/kg/injection, schedule: Q01DX005 (ip), vehicle: water): 108 % of control | T/C (dose: 400.0 mg/kg/injection, schedule: Q01DX009 (ip), vehicle: saline with Tween-80): 121 % of control | T/C (dose: 400.0 mg/kg/injection, schedule: Q01DX009 (ip), vehicle: saline): 122 % of control | T/C (dose: 400.0 mg/kg/injection, schedule: Q01DX009 (ip), vehicle: water): 117 % of control | T/C (dose: 400.0 mg/kg/injection, schedule: Q03HX016 (ip), vehicle: Klucel (hydroxypropylcellulose) (HPC)): 183 % of control | T/C (dose: 400.0 mg/kg/injection, schedule: Q04DX003 (ip), vehicle: saline with Tween-80): 117 % of control | T/C (dose: 512.0 mg/kg/injection, schedule: Q01DX009 (ip), vehicle: Klucel (hydroxypropylcellulose) (HPC)): 101 % of control and 91 % of control | T/C (dose: 600.0 mg/kg/injection, schedule: Q01DX009 (ip), vehicle: saline sonified): 86 % of control | T/C (dose: 600.0 mg/kg/injection, schedule: Q01DX009 (ip), vehicle: saline with Tween-80): 111 % of control | T/C (dose: 900.0 mg/kg/injection, schedule: Q01DX009 (ip), vehicle: saline with Tween-80): 94 % of control | T/C (dose: 1000.0 mg/kg/injection, schedule: Q01DX009 (oral), vehicle: saline with Tween-80): 101 % of control | T/C (dose: 1.3 micrograms/kg/injection, schedule: Q#A X Z (ip), vehicle: water): 91 % of control | T/C (dose: 1500.0 mg/kg/injection, schedule: Q01DX009 (oral), vehicle: saline with Tween-80): 104 % of control | T/C (dose: 2000.0 mg/kg/injection, schedule: Q01DX009 (oral), vehicle: saline with Tween-80): 100 % of control | T/C (dose: 13.4 micrograms/kg/injection, schedule: Q#A X Z (ip), vehicle: water): 98 % of control | T/C (dose: 134.0 micrograms/kg/injection, schedule: Q#A X Z (ip), vehicle: water): 98 % of control | T/C (dose: 1340.0 micrograms/kg/injection, schedule: Q#A X Z (ip), vehicle: water): 100 % of control

c1ccc(-c2ccc[n+](CCC[n+]3cccc(-c4ccccn4)c3)c2)nc1
T/C (dose: 50.0 mg/kg/injection, schedule: Q01DX005 (ip), vehicle: saline with Tween-80): 114 % of control | T/C (dose: 100.0 mg/kg/injection, schedule: Q01DX005 (ip), vehicle: saline with Tween-80): 114 % of control

Cc1csc2ncnc(N)c12
T/C [1]: 106 % of control | T/C [2]: 115 % of control | T/C [4]: 108 % of control

CCc1ccc(-n2c(C)nc3[nH]cc(C)c3c2=N)cc1
T/C (dose: 12.5 mg/kg/injection, schedule: Q01DX005 (ip), vehicle: Klucel (hydroxypropylcellulose) (HPC)): 100 % of control | T/C (dose: 25.0 mg/kg/injection, schedule: Q01DX005 (ip), vehicle: Klucel (hydroxypropylcellulose) (HPC)): 100 % of control | T/C (dose: 50.0 mg/kg/injection, schedule: Q01DX005 (ip), vehicle: Klucel (hydroxypropylcellulose) (HPC)): 98 % of control and 100 % of control

CCOC(=O)C1(C(=O)OCC)N=C(c2ccccc2)C=C1c1ccccc1
T/C (dose: 50.0 mg/kg/injection, schedule: Q01DX009 (ip), vehicle: saline with Tween-80): 100 % of control | T/C (dose: 100.0 mg/kg/injection, schedule: Q01DX009 (ip), vehicle: saline with Tween-80): 98 % of control | T/C [3]: 94 % of control

NC(=O)c1c(Cl)cccc1Cl
T/C (dose: 12.5 mg/kg/injection, schedule: Q04DX003 (ip), vehicle: saline): 101 % of control | T/C (dose: 25.0 mg/kg/injection, schedule: Q04DX003 (ip), vehicle: saline): 93 % of control | T/C (dose: 50.0 mg/kg/injection, schedule: Q04DX003 (ip), vehicle: saline): 99 % of control | T/C (dose: 100.0 mg/kg/injection, schedule: Q04DX003 (ip), vehicle: saline): 101 % of control

COc1ccc(CCN(C=O)c2ccc(OC)c(OC)c2)cc1OC
T/C (dose: 25.0 mg/kg/injection, schedule: Q01DX009 (ip), vehicle: other): 115 % of control | T/C (dose: 50.0 mg/kg/injection, schedule: Q01DX009 (ip), vehicle: other): 108 % of control | T/C (dose: 100.0 mg/kg/injection, schedule: Q01DX009 (ip), vehicle: other): 102 % of control | T/C (dose: 200.0 mg/kg/injection, schedule: Q01DX009 (ip), vehicle: other): 108 % of control | T/C (dose: 400.0 mg/kg/injection, schedule: Q01DX009 (ip), vehicle: other): 96 % of control
